Assay [1] concerns TNF-α in human Th9 cells. Put plainly: Flow cytometry of TNF-α in human Th9 cells (Figure 8G). The assay is classed as cell-based. The protocol:
For Th9 polarization, cultures were supplemented with IL-4 (10 ng/mL, PeproTech, catalog AF-200-04), TGF-β (1 ng/mL), and neutralizing anti–IFN-γ monoclonal antibody (10 μg/mL, clone B27, BioXcell, catalog BE0245). After 3 days of initial culture, cells were either collected for downstream assays or continued in extended culture with refreshed cytokines to maintain lineage commitment without antibodies. Th9 cells were collected at days 4, 5, and 6 for subsequent in vitro assays. For adoptive transfer studies, day 4–cultured Th9 cells were washed and prepared for intravenous injection.
Details regarding staining panels (human and mouse), reagents (including clones and catalog numbers), acquisition settings, compensation/controls, and analysis procedures are provided in Supplemental Methods.
MH9A4, Biolegend, Cat. No. 507605, PE/Cy7, clone MH9A4, Biolegend, Cat. No. […]
clone Mab11, Biolegend, Cat. No. 502908), Perforin (APC, clone dG9, Biolegend, Cat.
Flow cytometric acquisition was performed using a BD Fortessa or Cytek Aurora cytometer. Data were analyzed with FlowJo software (v10.8.1 or newer). Fluorescence compensation, isotype-matched controls, and fluorescence-minus-one (FMO) controls were applied as appropriate for multicolor panel validation.
Cells were washed twice with PBS and lysed in 1 × lysis buffer (NCM, Cat. No. […]
In general terms: Flow cytometry measures light scatter and fluorescence of single cells or particles in a stream.

Assay [2] relates to Raji-luciferase tumor. Put plainly: Raji-luciferase xenograft, survival (Figure 8L). The assay is classed as in vivo, NSG mice. The settings on record: EpA-treated human Th9 CAR T cells 2 × 10^6 i.v.; n = 5; result in words. The text has this:
Representative plots (A) and quantification (B) (n = 4). (C) Quantitative PCR analysis of IL9, IRF4, and SPI1 mRNA expression in human Th9 cells (n = 3). (D) Flow-cytometric analysis of mitochondrial membrane potential in human Th9 cells (n = 3). (E) Luciferase-based assay analysis of intracellular ATP levels in human Th9 cells (n = 5). (F) Flow-cytometric analysis of phosphorylated ZAP70 in human Th9 cells (n = 3). (G) Flow-cytometric analysis of TNF-α expression in human Th9 cells (n = 4). (H) Cytotoxicity assay of EpA-treated or control CD19 CAR Th9 cells against Raji lymphoma target cells at indicated effector-to-target (E/T) ratios (n = 3). (I) Schematic diagram of the in vivo Raji-luciferase xenograft model in NSG mice receiving control or EpA-treated human Th9 CAR T cells. (J and K) Representative bioluminescence imaging (J) and quantification of tumor radiance (K) in NSG mice at indicated time points after adoptive transfer. […] Statistical significance was determined using 2-tailed unpaired Student’s t test (B–H), 2-way ANOVA followed by Šidák’s post hoc test (K), and log-rank test (L). […]
For xenograft models, M-NSG mice were intravenously inoculated with 1 × 10^6 Raji-CD19 tumor cells. […] Tumor progression and immune cell infiltration were subsequently monitored according to experimental endpoints.
(In xenograft studies the graft and the host belong to different species.)

The values that follow come from PMC12867150, “A fungi-derived cyclic peptide enhances Th9-mediated antitumor immunity by targeting ZAP70 and SREBP1” (The Journal of Clinical Investigation, 2025).

Values joined by “and” are separate entries in the source; they are usually repeats but may differ in a detail not shown here. Equal values may be shown once.

For anteiso-C15 Leu7 surfactin [EpA], in assay [1] (Figure 8G, Th9-polarizing conditions, individual replicates, one per column (n = 4)), the “TNF-α production in human CD4⁺ T cells (flow cytometric analysis)” value is 321000 and 314000 and 322000 and 302000. Moreover, the “TNF-α expression, human Th9” value in assay [1] (result in words) is reported as “higher TNF-α expression”. Moreover, in assay [2], the survival entry is recorded as “significantly prolonged survival”.
